{"source": "BindingDB's records for doi:10.1073/pnas.0805677105", "about": "(Burnham Institute For Medical Research, 2008)", "key": {"[1]": {"target": "T1, Mitogen-activated protein kinase 8 (Homo sapiens, UniProt P45983)", "T1 sequence (P45983 whole entry)": "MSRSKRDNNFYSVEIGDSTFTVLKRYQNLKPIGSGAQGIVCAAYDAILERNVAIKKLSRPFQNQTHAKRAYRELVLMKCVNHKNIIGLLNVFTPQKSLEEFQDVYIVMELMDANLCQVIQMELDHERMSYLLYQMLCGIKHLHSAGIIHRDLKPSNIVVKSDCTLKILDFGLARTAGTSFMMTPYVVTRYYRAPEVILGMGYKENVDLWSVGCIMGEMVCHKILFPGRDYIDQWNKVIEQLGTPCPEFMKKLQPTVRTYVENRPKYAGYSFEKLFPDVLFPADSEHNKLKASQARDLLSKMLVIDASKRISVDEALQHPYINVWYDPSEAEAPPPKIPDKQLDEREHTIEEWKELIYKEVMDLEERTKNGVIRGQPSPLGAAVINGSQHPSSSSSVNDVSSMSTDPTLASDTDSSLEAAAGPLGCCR", "experiment": "DELFIA Assay (Dissociation Enhanced Lanthanide Fluoro-Immuno Assay)", "settings": "pH 7.8", "procedure": "Compound was evaluated for its ability to disrupt the interaction of pepJIP1 with JNK1 by using DELFIA assay. DELFIA is a heterogeneous assay whereby a biotin-linked pepJIP1 is adsorbed onto a streptavidin-coated plate followed by incubation with GST-JNK1. […] Controls include unlabeled peptide and blanks receiving no compounds."}, "[2]": {"target": "T1, Mitogen-activated protein kinase 8", "experiment": "In Vitro Kinase Assay (LanthaScreen Kinase Assay)", "settings": "pH 7.5; 22 °C"}}, "data": [{"smiles": "O=[N+]([O-])c1cnc(Sc2nnnn2-c2ccccc2)s1", "note": "[5-nitro-2-[(1-phenyl-1H-1,2,3,4-tetrazol-5-yl)sulfanyl]-1,3-thiazole]", "values": [{"measurement": "IC50", "setting": "[1]", "result": 0.183, "unit": "µM"}, {"measurement": "IC50", "setting": "[2]", "result": 3.3, "unit": "µM"}]}, {"smiles": "Cc1nc(Sc2nnnn2-c2ccccc2)sc1C(=O)O", "note": "[4-methyl-2-[(1-phenyl-1H-1,2,3,4-tetrazol-5-yl)sulfanyl]-1,3-thiazole-5-carboxylic acid]", "values": [{"measurement": "IC50", "setting": "[1]", "result": 7.5, "unit": "µM"}, {"measurement": "IC50", "setting": "[2]", "result": "> 100", "unit": "µM"}]}, {"smiles": "O=c1[nH]nc(Sc2ncc([N+](=O)[O-])s2)n1-c1ccccc1", "note": "[5-[(5-nitro-1,3-thiazol-2-yl)sulfanyl]-4-phenyl-4H-1,2,4-triazol-3-ol]", "values": [{"measurement": "IC50", "setting": "[1]", "result": 0.237, "unit": "µM"}, {"measurement": "IC50", "setting": "[2]", "result": 3.1, "unit": "µM"}]}, {"smiles": "O=c1[nH]nc(Sc2ccc([N+](=O)[O-])s2)n1-c1ccc2c(c1)OCCO2", "note": "[4-(2,3-dihydro-1,4-benzodioxin-6-yl)-5-[(5-nitrothiophen-2-yl)sulfanyl]-4H-1,2,4-triazol-3-ol]", "values": [{"measurement": "IC50", "setting": "[1]", "result": "> 25", "unit": "µM"}, {"measurement": "IC50", "setting": "[2]", "result": "> 100", "unit": "µM"}]}, {"smiles": "c1ccc(CSc2nnnn2-c2ccccc2)cc1", "note": "[5-(benzylsulfanyl)-1-phenyl-1H-1,2,3,4-tetrazole]", "values": [{"measurement": "IC50", "setting": "[1]", "result": "> 25", "unit": "µM"}, {"measurement": "IC50", "setting": "[2]", "result": "> 100", "unit": "µM"}]}]}
